Test results as given in publication PMC6036117, “Structural Insight Into Conformational Changes Induced by ATP Binding in a Type III Secretion-Associated ATPase From Shigella flexneri” (Frontiers in Microbiology, 2018).
Read-outs that look alike come from different tables or passages of the source.

How the values were obtained:
Spa47Δ1-83 = target: T1, Spa47Δ1-83 (Shigella flexneri, UniProt P0A1C1); experiment: Isothermal titration calorimetry (ITC) of nucleotide binding to monomeric Spa47Δ1-83; settings: for Ka (affinity constant) / ΔH (enthalpy variation) / ΔS (entropy variation): ATP without Mg2+, other ligands with Mg2+
T1 construct: The cDNA encoding Spa47Δ1-83 (84–430 aa) was amplified; 6xHis (pET28a, thrombin site) (N, cleaved yes); made in house; host or cells: E. coli Rosetta (DE3)
Method: An isothermal titration calorimetry (ITC) assay was performed with a MicroCalTM iTC200 calorimeter (MicroCal, USA) at 25°C. Both the protein and the ATP homolog were dissolved in the same buffer (20 mM Tris-HCl, pH = 8.0, 100 mM NaCl, 5 mM MgCl2). The concentrations of Spa47Δ1-83 and the mutants were between 0.03 and 0.04 mM. The concentration of ATP analogs was between 1 and 2 mM. Titration consisted of 18 consecutive 2-μl injections of ATP analogs with a 120-s interval between injections using a stir rate of 600 rpm. The dilution heat of the ligand was measured by adding ligand to a buffer solution under these conditions, and the injection schedule was identical to that used for the protein sample. For titration of the protein with ATP, MgCl2 was omitted in the buffer. Data acquisition and analysis were performed using Origin software. A single binding site model was used for nonlinear curve fitting. ITC experiments were repeated twice for each ligand.

p97 = target: p97; parameters: method as in Tang et al., 2010; settings: ATP binding; ref Tang et al., 2010; cited from earlier work
[1] = target: subunit B of the A1A0 ATP synthase; parameters: method as in Kumar et al., 2009; settings: ATP binding; ref Kumar et al., 2009; cited from earlier work
muscle creatine kinase = target: muscle creatine kinase; parameters: method as in Forstner et al., 1999; settings: ATP binding; ref Forstner et al., 1999; cited from earlier work
[2] = ITC, 25°C, 20 mM Tris-HCl pH 8.0, 100 mM NaCl, 5 mM MgCl2 (MgCl2 omitted for ATP), single binding site model, Kd calculated as 1/Ka, read-out: Kd (apparent dissociation constant)

Compound | Kd (Spa47Δ1-83; [2]) [µM] | Ka (affinity constant) (Spa47Δ1-83; ITC, 25°C) | ΔH (enthalpy variation) (Spa47Δ1-83; ITC, 25°C) [kcal/mol] | ΔS (entropy variation) (Spa47Δ1-83; ITC, 25°C) [cal/mole/deg] | Kd (Spa47Δ1-83; ITC, 25°C, 20 mM Tris-HCl pH 8.0, 100 mM NaCl, 5 mM MgCl2 (MgCl2 omitted for ATP), single binding site model, Kd calculated as 1/Ka, listed as AMP-PNP, read-out: Kd (apparent dissociation constant)) [µM] | fold lower binding affinity than ATP and ATPγS (Spa47Δ1-83; ITC, relative to the affinity measured for ATP and ATPγS) | Kd (p97) [µM] | Kd [1] [µM] | Kd (muscle creatine kinase) [µM] | Kd (Spa47Δ1-83) [µM]
Nc1ncnc2c1ncn2[C@@H]1O[C@H](COP(=O)(O)OP(=O)(O)O)[C@@H](O)[C@H]1O [ADP] | 150 ± 6.03 | 0.067±0.003 10^5. M^-1 | -17.24 ± 3.82 | -40.30 |  |  |  |  |  | 
Nc1ncnc2c1ncn2[C@@H]1O[C@H](COP(=O)(O)OP(=O)(O)NP(=O)(O)O)[C@@H](O)[C@H]1O [AMPPNP] | 322 ± 12.6 | 0.031±0.001 10^5. M^-1 | -7.21 ± 0.11 | -8.20 | 322 ± 12.6 | ~ 15 fold |  |  |  | 
Nc1ncnc2c1ncn2[C@@H]1O[C@H](COP(=O)(O)OP(=O)(O)OP(=O)(O)O)[C@@H](O)[C@H]1O [ATP] | 23.1 ± 3.44 | 0.443±0.070 10^5. M^-1 | -4.99 ± 0.53 | 4.50 |  |  | 0.89 | 22 | 4 to 16 | 
Nc1ncnc2c1ncn2[C@@H]1O[C@H](CO[P@](=O)(O)O[P@](=O)(O)O[P@@](=O)(O)S)[C@@H](O)[C@H]1O [ATPγS] |  | 0.472±0.017 10^5. M^-1 | -8.16 ± 0.16 | -6.00 |  |  |  |  |  | 21.2 ± 0.8
